Data from PubChem BioAssay AID248 (DTP/NCI, 2004).
Values joined by “and” are separate entries in the source; they are usually repeats but may differ in a detail not shown here. Identical values can stand only once. Inconclusive results and toxic doses are left out. Rule as the data show it: active = T/C of 150% or more; inactive = T/C below 125%.

Test system: L1210 leukemia ip in BDF1 mice, survival T/C
Experiment: NCI In Vivo Anticancer Drug Screen. Data for tumor model L1210 Leukemia (intraperitoneal) in B6D2F1 (BDF1) mice
Details: endpoint: mean survival time, higher = longer survival
How it was run: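 Antitumor effect is assessed in tumor-bearing animals. Survival in the compound arm is compared with a vehicle-dosed control arm and expressed as their quotient.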

[1] = dose: 100.0 mg/kg/injection, schedule: Q01DX009 (ip), vehicle: saline
[2] = dose: 100.0 mg/kg/injection, schedule: Q04DX003 (ip), vehicle: saline
[3] = dose: 200.0 mg/kg/injection, schedule: Q01DX009 (ip), vehicle: saline
[4] = dose: 200.0 mg/kg/injection, schedule: Q04DX003 (ip), vehicle: saline
[5] = dose: 400.0 mg/kg/injection, schedule: Q01DX009 (ip), vehicle: saline
[6] = dose: 400.0 mg/kg/injection, schedule: Q04DX003 (ip), vehicle: saline
[7] = dose: 300.0 mg/kg/injection, schedule: Q01DX001 (ip), vehicle: carboxymethylcellulose (CMC)
[8] = dose: 100.0 mg/kg/injection, schedule: Q01DX001 (ip), vehicle: Klucel (hydroxypropylcellulose) (HPC)
[9] = dose: 200.0 mg/kg/injection, schedule: Q01DX001 (ip), vehicle: Klucel (hydroxypropylcellulose) (HPC)
[10] = dose: 100.0 mg/kg/injection, schedule: Q01DX001 (ip), vehicle: carboxymethylcellulose (CMC)
[11] = dose: 200.0 mg/kg/injection, schedule: Q01DX001 (ip), vehicle: carboxymethylcellulose (CMC)
[12] = dose: 400.0 mg/kg/injection, schedule: Q01DX001 (ip), vehicle: carboxymethylcellulose (CMC)
[13] = dose: 100.0 mg/kg/injection, schedule: Q04DX003 (ip), vehicle: Klucel (hydroxypropylcellulose) (HPC)
[14] = dose: 200.0 mg/kg/injection, schedule: Q04DX003 (ip), vehicle: Klucel (hydroxypropylcellulose) (HPC)
[15] = dose: 400.0 mg/kg/injection, schedule: Q04DX003 (ip), vehicle: Klucel (hydroxypropylcellulose) (HPC)
[16] = dose: 100.0 mg/kg/injection, schedule: Q01DX001 (ip), vehicle: saline
[17] = dose: 200.0 mg/kg/injection, schedule: Q01DX001 (ip), vehicle: saline
[18] = dose: 400.0 mg/kg/injection, schedule: Q01DX001 (ip), vehicle: saline
[19] = dose: 25.0 mg/kg/injection, schedule: Q01DX009 (ip), vehicle: saline
[20] = dose: 50.0 mg/kg/injection, schedule: Q01DX009 (ip), vehicle: saline
[21] = dose: 50.0 mg/kg/injection, schedule: Q01DX001 (ip), vehicle: carboxymethylcellulose (CMC)
[22] = dose: 100.0 mg/kg/injection, schedule: Q04DX003 (ip), vehicle: saline with Tween-80
[23] = dose: 200.0 mg/kg/injection, schedule: Q04DX003 (ip), vehicle: saline with Tween-80
[24] = dose: 400.0 mg/kg/injection, schedule: Q04DX003 (ip), vehicle: saline with Tween-80

Measured: T/C

O=C(NCCO)Nc1ccccc1F
inactive: [1] 95 % of control | [2] 95 % of control | [3] 101 % of control | [4] 95 % of control | [5] 106 % of control | [6] 93 % of control

CN(C)N=Nc1cccc(C(=O)O)c1
inactive: dose: 50.0 mg/kg/injection, schedule: Q04DX002 (ip), vehicle: other 106 % of control | dose: 100.0 mg/kg/injection, schedule: Q04DX002 (ip), vehicle: other 113 % of control | dose: 200.0 mg/kg/injection, schedule: Q04DX002 (ip), vehicle: other 113 % of control | dose: 400.0 mg/kg/injection, schedule: Q04DX002 (ip), vehicle: other 124 % of control

CNc1c(C)cc(C)c(NC)c1C
inactive: dose: 100.0 mg/kg/injection, schedule: Q04DX002 (ip), vehicle: saline with Tween-80 107 % of control

CC(=O)Nc1cccc(N=Cc2ccc(N(CCOS(C)(=O)=O)CCOS(C)(=O)=O)cc2C)c1
inactive: dose: 8.0 mg/kg/injection, schedule: Q01DX009 (ip), vehicle: saline with Tween-80 120 % of control

NC(N)=N/N=C(/CC(=O)c1ccccc1)c1ccccc1
inactive: dose: 15.0 mg/kg/injection, schedule: Q01DX Z (ip), vehicle: carboxymethylcellulose (CMC) 103 % of control | dose: 30.0 mg/kg/injection, schedule: Q01DX Z (ip), vehicle: carboxymethylcellulose (CMC) 107 % of control | dose: 30.0 mg/kg/injection, schedule: Q01DX Z (oral), vehicle: carboxymethylcellulose (CMC) 98 % of control | dose: 60.0 mg/kg/injection, schedule: Q01DX Z (ip), vehicle: carboxymethylcellulose (CMC) 101 % of control | dose: 60.0 mg/kg/injection, schedule: Q01DX Z (oral), vehicle: carboxymethylcellulose (CMC) 96 % of control | dose: 120.0 mg/kg/injection, schedule: Q01DX Z (oral), vehicle: carboxymethylcellulose (CMC) 98 % of control | dose: 240.0 mg/kg/injection, schedule: Q01DX Z (oral), vehicle: carboxymethylcellulose (CMC) 93 % of control and 100 % of control | dose: 480.0 mg/kg/injection, schedule: Q01DX Z (oral), vehicle: carboxymethylcellulose (CMC) 100 % of control

CN(N)C(=O)Nc1cccc(Cl)c1
inactive: dose: 75.0 mg/kg/injection, schedule: Q01DX001 (ip), vehicle: carboxymethylcellulose (CMC) 102 % of control | dose: 150.0 mg/kg/injection, schedule: Q01DX001 (ip), vehicle: carboxymethylcellulose (CMC) 107 % of control | [7] 107 % of control

Nc1ncc(-c2ccccc2)nn1 (tested in a mixture with another compound)
inactive: [8] 90 % of control | [9] 90 % of control | dose: 400.0 mg/kg/injection, schedule: Q01DX001 (ip), vehicle: Klucel (hydroxypropylcellulose) (HPC) 116 % of control

COc1ccc(C=Nc2ccc([N+](=O)[O-])cc2O)cc1
inactive: [10] 96 % of control | [11] 94 % of control | [12] 90 % of control

COc1ccc(/C=C(\C#N)c2cccc3ccccc23)cc1
inactive: [13] 98 % of control | [14] 105 % of control | [15] 90 % of control

CCSCC1OC(n2cnc3c(N)ncnc32)CC1O (stereo not drawn)
inactive: [16] 98 % of control | [17] 104 % of control | [18] 92 % of control

C1CCC2(CC1)CN2
inactive: [19] 103 % of control | [20] 100 % of control | [16] 97 % of control | [1] 104 % of control

O=NN1C(=O)N[C@@H]2[C@H]1CS[C@@H]2CCCCC(=O)O
inactive: [21] 101 % of control | [10] 96 % of control | [11] 101 % of control | [7] 95 % of control | [12] 95 % of control | dose: 600.0 mg/kg/injection, schedule: Q01DX001 (ip), vehicle: carboxymethylcellulose (CMC) 87 % of control | dose: 800.0 mg/kg/injection, schedule: Q01DX001 (ip), vehicle: carboxymethylcellulose (CMC) 90 % of control

N#CC(NC(N)=O)(c1ccccc1)c1ccccc1
inactive: [21] 91 % of control | [10] 107 % of control | [11] 96 % of control | [12] 91 % of control

Cc1cc[n+]([O-])cc1
inactive: [16] 100 % of control | [1] 98 % of control | [2] 94 % of control | [17] 98 % of control | [3] 101 % of control | [4] 102 % of control | [18] 98 % of control | [5] 98 % of control | [6] 98 % of control

CCN(CC)P(=O)(OCC(C)C(C)=O)N(CCCl)CCCl (stereo not drawn)
inactive: dose: 100.0 mg/kg/injection, schedule: Q04DX003 (ip), vehicle: DMSO 115 % of control | dose: 200.0 mg/kg/injection, schedule: Q04DX003 (ip), vehicle: DMSO 113 % of control | dose: 400.0 mg/kg/injection, schedule: Q04DX003 (ip), vehicle: DMSO 112 % of control

N#CCCSC(=N)N
inactive: [19] 107 % of control | dose: 25.0 mg/kg/injection, schedule: Q04DX003 (ip), vehicle: saline 96 % of control | [20] 118 % of control | dose: 50.0 mg/kg/injection, schedule: Q04DX003 (ip), vehicle: saline 102 % of control | [16] 95 % of control | [1] 103 % of control | [2] 107 % of control

O=c1cc(Oc2ccc([N+](=O)[O-])cc2)[nH]c(=O)[nH]1
inactive: [8] 96 % of control | [9] 107 % of control

CCCCc1cc(O)c2c(c1O)C(=O)c1ccccc1C2=O
inactive: dose: 100.0 mg/kg/injection, schedule: Q01DX001 (ip), vehicle: saline sonified 91 % of control | dose: 100.0 mg/kg/injection, schedule: Q01DX009 (ip), vehicle: saline sonified 97 % of control | dose: 200.0 mg/kg/injection, schedule: Q01DX001 (ip), vehicle: saline sonified 86 % of control | dose: 200.0 mg/kg/injection, schedule: Q01DX009 (ip), vehicle: saline sonified 102 % of control | dose: 400.0 mg/kg/injection, schedule: Q01DX001 (ip), vehicle: saline sonified 94 % of control | dose: 400.0 mg/kg/injection, schedule: Q01DX009 (ip), vehicle: saline sonified 96 % of control

O=c1cc(O)ccn1CCc1cccs1
inactive: dose: 100.0 mg/kg/injection, schedule: Q01DX009 (ip), vehicle: saline with Tween-80 94 % of control | [22] 91 % of control | dose: 200.0 mg/kg/injection, schedule: Q01DX009 (ip), vehicle: saline with Tween-80 96 % of control | [23] 98 % of control | [24] 90 % of control

CC1(C)OC2COC(OCc3ccccc3)C(OCc3ccccc3)C2O1 (stereo not drawn)
inactive: [22] 97 % of control | [23] 103 % of control | [24] 97 % of control

COC(=O)c1ccccc1N=Nc1ccc(O)c(C(C)C)c1
inactive: dose: 25.0 mg/kg/injection, schedule: Q01DX009 (ip), vehicle: Klucel (hydroxypropylcellulose) (HPC) 98 % of control | dose: 50.0 mg/kg/injection, schedule: Q01DX009 (ip), vehicle: Klucel (hydroxypropylcellulose) (HPC) 98 % of control | [13] 97 % of control | [14] 100 % of control | [15] 98 % of control

NCCSSCCN
inactive: dose: 24.0 mg/kg/injection, schedule: Q04DX002 (ip), vehicle: saline with Tween-80 98 % of control | dose: 60.0 mg/kg/injection, schedule: Q04DX002 (ip), vehicle: saline with Tween-80 95 % of control | dose: 100.0 mg/kg/injection, schedule: Q04DX002 (ip), vehicle: saline 93 % of control | dose: 150.0 mg/kg/injection, schedule: Q04DX002 (ip), vehicle: saline with Tween-80 91 % of control | dose: 200.0 mg/kg/injection, schedule: Q04DX002 (ip), vehicle: saline 107 % of control

O=CN1CCN(c2ccccc2)CC1
inactive: dose: 100.0 mg/kg/injection, schedule: Q04DX002 (ip), vehicle: Klucel (hydroxypropylcellulose) (HPC) 97 % of control | dose: 200.0 mg/kg/injection, schedule: Q04DX002 (ip), vehicle: Klucel (hydroxypropylcellulose) (HPC) 87 % of control | dose: 400.0 mg/kg/injection, schedule: Q04DX002 (ip), vehicle: Klucel (hydroxypropylcellulose) (HPC) 91 % of control
